# Results reported in the supplement of paper PMC10307832.
# Tests used:
# Assay in all cases: relative viability (nuclei count vs DMSO), 5 days (fraction); higher = more cells survive
# 201T = system: 201T
# Procedure, shortened: (§1)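 A single step with final 0.05% Triton X-100, 1% formaldehyde and 1 ug/ml Hoechst fixed the cells and stained nuclei 5 days after treatment. Lung cancer cell lines in 1536-well plates had been treated by pin tool the day after seeding with one drug alone or a fixed anchor-drug dose plus five library-drug doses (not always all listed) in √10 steps, and nuclei were counted on 4× images. Relative viability is the ratio of nuclei in treated wells to nuclei in vehicle wells, taken as the median of duplicate plates.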
# BEN = system: BEN
# Procedure, shortened: as §1
# HCC-366 = system: HCC-366
# Procedure, shortened: as §1
# HCC-44 = system: HCC-44
# Procedure, shortened: as §1
# HCC-78 = system: HCC-78
# Procedure, shortened: as §1
# LOU-NH91 = system: LOU-NH91
# Procedure, shortened: as §1
# LU99A = system: LU99A
# Procedure, shortened: as §1
# NCI-H1355 = system: NCI-H1355
# Procedure, shortened: as §1
# NCI-H1395 = system: NCI-H1395
# Procedure, shortened: as §1
# NCI-H1734 = system: NCI-H1734
# Procedure, shortened: as §1
# NCI-H1975 = system: NCI-H1975
# Procedure, shortened: as §1
# NCI-H2085 = system: NCI-H2085
# Procedure, shortened: as §1
# NCI-H2087 = system: NCI-H2087
# Procedure, shortened: as §1
# NCI-H2126 = system: NCI-H2126
# Procedure, shortened: as §1
# NCI-H2228 = system: NCI-H2228
# Procedure, shortened: as §1
# NCI-H322M = system: NCI-H322M
# Procedure, shortened: as §1
# NCI-H358 = system: NCI-H358
# Procedure, shortened: as §1
# NCI-H647 = system: NCI-H647
# Procedure, shortened: as §1
# NCI-H727 = system: NCI-H727
# Procedure, shortened: as §1
# PC-14 = system: PC-14
# Procedure, shortened: as §1
# SK-LU-1 = system: SK-LU-1
# Procedure, shortened: as §1
# SK-MES-1 = system: SK-MES-1
# Procedure, shortened: as §1
# UMC-11 = system: UMC-11
# Procedure, shortened: as §1
structure (smiles),measurement,setting,value
Oc1nc(-c2ccc(C(F)(F)F)cc2)nc2c1CSCC2 [XAV939] + O=C(c1cc(Cc2n[nH]c(=O)c3ccccc23)ccc1F)N1CCN(C(=O)C2CC2)CC1 [Olaparib] (partner 8 µM),relative viability,201T; first compound 0.08 µM,0.855
same,relative viability,201T; first compound 0.253 µM,0.814
same,relative viability,201T; first compound 0.8 µM,0.687
same,relative viability,201T; first compound 2.53 µM,0.745
same,relative viability,BEN; first compound 0.08 µM,1.14
same,relative viability,BEN; first compound 0.253 µM,1.04
same,relative viability,BEN; first compound 0.8 µM,1.02
same,relative viability,BEN; first compound 2.53 µM,0.845
same,relative viability,HCC-366; first compound 0.08 µM,0.414
same,relative viability,HCC-366; first compound 0.253 µM,0.326
same,relative viability,HCC-366; first compound 0.8 µM,0.283
same,relative viability,HCC-366; first compound 2.53 µM,0.175
same,relative viability,HCC-44; first compound 0.08 µM,0.935
same,relative viability,HCC-44; first compound 0.253 µM,0.904
same,relative viability,HCC-44; first compound 0.8 µM,0.958
same,relative viability,HCC-44; first compound 2.53 µM,0.866
same,relative viability,HCC-78; first compound 0.08 µM,0.843
same,relative viability,HCC-78; first compound 0.253 µM,0.821
same,relative viability,HCC-78; first compound 0.8 µM,0.713
same,relative viability,HCC-78; first compound 2.53 µM,0.592
same,relative viability,LOU-NH91; first compound 0.08 µM,0.923
same,relative viability,LOU-NH91; first compound 0.253 µM,0.834
same,relative viability,LOU-NH91; first compound 0.8 µM,0.908
same,relative viability,LOU-NH91; first compound 2.53 µM,0.887
same,relative viability,LU99A; first compound 0.08 µM,0.258
same,relative viability,LU99A; first compound 0.253 µM,0.257
same,relative viability,LU99A; first compound 0.8 µM,0.271
same,relative viability,LU99A; first compound 2.53 µM,0.258
same,relative viability,NCI-H1355; first compound 0.08 µM,0.729
same,relative viability,NCI-H1355; first compound 0.253 µM,0.617
same,relative viability,NCI-H1355; first compound 0.8 µM,0.692
same,relative viability,NCI-H1355; first compound 2.53 µM,0.487
same,relative viability,NCI-H1395; first compound 0.08 µM,0.47
same,relative viability,NCI-H1395; first compound 0.253 µM,0.449
same,relative viability,NCI-H1395; first compound 0.8 µM,0.478
same,relative viability,NCI-H1395; first compound 2.53 µM,0.425
same,relative viability,NCI-H1734; first compound 0.08 µM,0.655
same,relative viability,NCI-H1734; first compound 0.253 µM,0.538
same,relative viability,NCI-H1734; first compound 0.8 µM,0.673
same,relative viability,NCI-H1734; first compound 2.53 µM,0.602
same,relative viability,NCI-H1975; first compound 0.08 µM,0.712
same,relative viability,NCI-H1975; first compound 0.253 µM,0.601
same,relative viability,NCI-H1975; first compound 0.8 µM,0.622
same,relative viability,NCI-H1975; first compound 2.53 µM,0.505
same,relative viability,NCI-H2085; first compound 0.08 µM,0.782
same,relative viability,NCI-H2085; first compound 0.253 µM,0.719
same,relative viability,NCI-H2085; first compound 0.8 µM,0.742
same,relative viability,NCI-H2085; first compound 2.53 µM,0.761
same,relative viability,NCI-H2087; first compound 0.08 µM,0.625
same,relative viability,NCI-H2087; first compound 0.253 µM,0.533
same,relative viability,NCI-H2087; first compound 0.8 µM,0.665
same,relative viability,NCI-H2087; first compound 2.53 µM,0.464
same,relative viability,NCI-H2126; first compound 0.08 µM,0.962
same,relative viability,NCI-H2126; first compound 0.253 µM,0.839
same,relative viability,NCI-H2126; first compound 0.8 µM,0.865
same,relative viability,NCI-H2126; first compound 2.53 µM,0.855
same,relative viability,NCI-H2228; first compound 0.08 µM,0.945
same,relative viability,NCI-H2228; first compound 0.253 µM,0.562
same,relative viability,NCI-H2228; first compound 0.8 µM,0.65
same,relative viability,NCI-H2228; first compound 2.53 µM,0.608
same,relative viability,NCI-H322M; first compound 0.08 µM,0.874
same,relative viability,NCI-H322M; first compound 0.253 µM,0.752
same,relative viability,NCI-H322M; first compound 0.8 µM,0.667
same,relative viability,NCI-H322M; first compound 2.53 µM,0.661
same,relative viability,NCI-H358; first compound 0.08 µM,0.615
same,relative viability,NCI-H358; first compound 0.253 µM,0.5
same,relative viability,NCI-H358; first compound 0.8 µM,0.598
same,relative viability,NCI-H358; first compound 2.53 µM,0.563
same,relative viability,NCI-H647; first compound 0.08 µM,0.734
same,relative viability,NCI-H647; first compound 0.253 µM,0.451
same,relative viability,NCI-H647; first compound 0.8 µM,0.506
same,relative viability,NCI-H647; first compound 2.53 µM,0.439
same,relative viability,NCI-H727; first compound 0.08 µM,0.706
same,relative viability,NCI-H727; first compound 0.8 µM,0.696
same,relative viability,NCI-H727; first compound 2.53 µM,0.678
same,relative viability,PC-14; first compound 0.08 µM,0.305
same,relative viability,PC-14; first compound 0.253 µM,0.208
same,relative viability,PC-14; first compound 0.8 µM,0.313
same,relative viability,PC-14; first compound 2.53 µM,0.248
same,relative viability,SK-LU-1; first compound 0.08 µM,0.5
same,relative viability,SK-LU-1; first compound 0.253 µM,0.481
same,relative viability,SK-LU-1; first compound 0.8 µM,0.437
same,relative viability,SK-LU-1; first compound 2.53 µM,0.596
same,relative viability,SK-MES-1; first compound 0.08 µM,0.664
same,relative viability,SK-MES-1; first compound 0.253 µM,0.605
same,relative viability,SK-MES-1; first compound 0.8 µM,0.621
same,relative viability,SK-MES-1; first compound 2.53 µM,0.465
same,relative viability,UMC-11; first compound 0.08 µM,0.488
same,relative viability,UMC-11; first compound 0.253 µM,0.327
same,relative viability,UMC-11; first compound 0.8 µM,0.327
same,relative viability,UMC-11; first compound 2.53 µM,0.274
